Test results taken from US9163018B2, “Method of treatment of age-related macular degeneration (AMD)” (Prana Biotechnology Limited, priority 2006, dated 2015).
Read-outs that look alike come from different tables or passages of the source.

Assays:
[1] = biological target: T1, Aβ 1-42 (Homo sapiens, UniProt P05067); experiment: Fluorometric H2O2 assay (inhibition of Abeta H2O2 production); format: biochemical
T1 construct: The reaction solutions contained Aβ 1-42 at concentrations
Outline: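 Copper-dependent Aβ H2O2 production measured fluorometrically with deacetylated dichlorofluorescein plus HRP in PBS, pH 7.4. Incubation 60 min at 37 C, test compound included in wells. H2O2 quantified against H2O2 standards.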

[2] = biological target: T2, Abeta:Zn (25:50 μM) Synthetic Aggregations (Homo sapiens, UniProt P05067); experiment: Disaggregation of Abeta:Zn synthetic aggregates (ThT fluorescence); format: biochemical; details: for Disaggregation % Aggregate reduction at 5 μM: 5 μM test compound
T2 construct: PB Compound Mediated Dissolution of Aggregated Abeta 1-42; purchased Keck Laboratory, Yale University School of Medicine
Protocol: PB Compound Mediated Dissolution of Aggregated Abeta 1-42
Abeta1-42, is available from the Keck Laboratory, Yale University School of Medicine. PBS (pH 6.6): Sigma Cat# D-8662. Zn(ZnCl2): BDH Cat#100884E. (Dissolved in water in 1 mM concentration) DMSO: Ajax Cat#2225. Thioflavin T: Sigma Cat# T-3516. (Dissolved in water in 1 mM concentration)
By way of example of an amyloid composition, Abeta is dissolved in distilled water and peptide concentration is assessed by measured absorption at 214 nm in UV spectrometer. An aggregation reactive mixture (per one concentration of one testing compound) is set us as follows: Abeta: 25 μM, ZnCl2 50 μM, ThT 50 μM, PBS to make up to 500 μl. The tube is wrapped with foil and incubated at 37 degrees by rotation for 24 hours. A serial dilution of each test compound is made up in DMSO, for example: 100 μM, 500 μM, 1000 μM, 2500 μM and 5000 μM. The final concentrations are 1, 5, 10, 25 and 50 μM, 5 μl of each of these compounds is placed in a centrifuge tube and 5 μl of DMSO is added to both negative and positive control tubes. 495 μl of aggregates (after 24 hours incubation) is added to the centrifuge tube. The negative control is PBS plus ZnCl2 and ThT and DMSO. The positive control is aggregates plus DMSO. The tubes are incubated at 37 degrees for further 2 hours with rotation. Samples are measured for ThT fluorescence using an LS55 (Perkin Elmer) fluorimeter in a cuvette (500 μl volume). The excitation wavelength is 450 nm and the emission wavelength is 480 nm. Data are analyzed using graph pad prism program. The tested compounds included so called “PB” compounds.

[3] = Mice plasma concentration after oral dose; format: in vivo; details: for Mice plasma concentration: 30 min to 4 h after single or repeat oral dose of 30 mg/kg
[4] = Toxicity, visual observations in mice; details: duration and visual observations
[5] = test system: primary cortical neuronal cultured cells; experiment: Test compound cytotoxicity, MTS assay, primary cortical neuronal cultures; format: cell-based, mouse; details: for Cytotox (% viable) Neuronal cells at 1 μM: 1 μM test compound; for Cytotox (% viable) Neuronal cells at 10 μM: 10 μM test compound
Outline: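 Primary cortical neurons were cultured five days in Neurobasal/B27, then exposed on day six to compounds (from 2.5 mM DMSO stocks) in medium minus antioxidants, in triplicate for 4 days at 37° C. Viability was measured by MTS, 2 h at 37° C, absorbance at 560 nm.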

[6] = test system: M17 human neuroblastoma cells; experiment: Cytotoxicity, M17 human neuroblastoma cells; format: cell-based; details: for Cytotox (% viable) M17 cells at 1 μM: 1 μM test compound; for Cytotox (% viable) M17 cells at 10 μM: 10 μM test compound
Protocol: Assay 3. MTS Assay for Cell Viability
Cell viability is determined using the MTS assay. Culture medium is replaced with fresh neurobasal medium plus B27 supplements minus antioxidants. 1/10th volume MTS solution (Cell Titre 96 Aqueous One, Promega Corporation) and incubated at 37° C., 2 hrs. 200 microliter aliquots are measured with a spectrophotometer at 560 nm.

[7] = test system: Abeta in extract of post-mortem human AD brain tissue; experiment: BAS: human brain amyloid solubilization assay; format: biochemical
Protocol: Assay 5. Human Brain Amyloid Solubilization Assay
This assay was performed in order to assess the ability of a test compound to mobilise Aβ, as an example form of amyloid, from the insoluble to the soluble phase of an extract of tissue from post mortem human AD brain.
Up to 0.5 g of plaque-bearing cortex without meninges was homogenized using a DIAX 900 homogenizer (Hendolph and Co, Kelheim, Germany) or other suitable device for three 30-second periods at full speed in 2 ml of ice-cold phosphate-buffered saline, pH 7.4. To obtain the phosphate-buffered saline-extractable fraction, the homogenate was centrifuged at 100,000×g for 30 min and the supernatant removed. Alternatively, the tissue was freeze dried then pulverized to form a powder which was then weighed out into aliquots for extraction as above. Supernatant, either freeze-dried and resuspended or in unconcentrated form, was dissolved in 200 μl of Tris-Tricine sodium dodecyl sulfate (SDS) sample buffer pH 8.3 containing 8% SDS, 10% 2-mercaptoethanol. Aliquots (10 μl) were then boiled for 10 minutes before SDS-polyacrylamide gel electrophoresis. The insoluble fraction of the cortical samples was obtained by resuspending the initial pelleted sample in 1 ml of phosphate-buffered saline, A 50-μl aliquot of this suspension was then boiled in […] of sample buffer as above.
Tris-Tricine polyacrylamide gel electrophoresis was performed by loading appropriately diluted samples on to 10% to 20% gradient gels (Novex, San Diego, Calif.) followed by transfer on to 0.2-μm nitrocellulose membrane (Bio-Rad, Hercules, Calif.). Aβ was detected by using monoclonal antibody W02, which detects residues 5 through 8, […] (or another suitable antibody) in conjunction with horseradish peroxidase-conjugated rabbit anti-mouse IgG (Dako, Denmark), and visualized by using enhanced chemiluminescence (eg ECL; Amersham Life Science, Buckinghamshire, UK). Each gel included three lanes containing 0.5, 1, and 2 ng of synthetic Aβ40 (Keck Laboratory, Yale University, New Haven, Conn.) as reference standards.
Blot films were scanned by using a suitable imaging system such as the UVP gel documentation system, and densitometry performed using suitable software, eg UVP Labworks. The dynamic range of the film/scanner was determined by using a step tablet (No. 911ST600, Kodak, Rochester N.Y.), a calibrated film exposed by the manufacturer to provided steps of known increasing intensity. The quantifiable range of signal intensity for densitometric analysis of the mono- and dimeric Aβ bands was based on the comparison with a curve obtained by scanning and densitometry of the step tablet.
All samples were analyzed at least twice, and gel loadings and dilutions were adjusted to fit within the quantifiable region of the standard curve. The proportion of ‘soluble’ to ‘insoluble’ Aβ may be used to determine the efficiency of extraction of a test compound compared with the efficiency of a known compound. The insoluble Aβ being comprised of the pelletable fraction derived from the insoluble amyloid plaque from the above cortical samples and the soluble fraction comprising monomeric and/or oligomeric soluble Aβ.

[8] = concentration required to inhibit 50% of Abeta H2O2 production, read-out: H2O2 IC50
[9] = max effect across the concentration range, referenced to baseline PBS

T1 sequence (P05067 672-713 limits assumed): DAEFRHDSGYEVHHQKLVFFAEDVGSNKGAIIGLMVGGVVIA
T2 sequence (P05067 672-713 limits assumed): as above

| SMILES | IC50 [1, 8] | Disaggregation % Aggregate reduction at 5 μM [2] | EC50 ([2]; Abeta:Zn 25:50 μM aggregates) | Mice plasma concentration [3] | Toxicity at 30 mg/kg [4] | Cytotox (% viable) Neuronal cells at 1 μM [5] | Cytotox (% viable) Neuronal cells at 10 μM [5] | Cytotox (% viable) M17 cells at 1 μM [6] | Cytotox (% viable) M17 cells at 10 μM [6] | Mice plasma concentration at 120 mg/kg ([3]; 120 mg/kg) | BAS max effect [7, 9] | Mice plasma concentration at 10 mg/kg ([3]; oral dose 10 mg/kg) | Toxicity at 10 mg/kg ([4]; 10 mg/kg) | IC50 [1] | BAS max effect [7] | Disaggregation EC50 ([2]; Abeta:Zn 25:50 μM aggregates) |
| --- | --- | --- | --- | --- | --- | --- | --- | --- | --- | --- | --- | --- | --- | --- | --- | --- |
| CCCn1cnc2c(O)c(I)ccc2c1=O [PB 1119] | 0.28 µM | 51.5% | 2.72 µM | Up to 1096 ng/ mL ng/mL | 10 days, none |  |  |  |  |  |  |  |  |  |  |  |
| CN(C)Cc1cnc2c(Cl)cc(Cl)c(O)c2n1.Cl [PB 1066] | > 10 µM | 35% | > 50 µM | Up to 1000 ng/mL in mice |  | 92% | 95% |  |  |  |  |  |  |  |  |  |
| CCc1c(O)c(O)cc[n+]1CC.[Cl-] [PB 1270] |  |  |  | ≤ 493.7 ng/mL | 10 days, none |  |  | 102.8% | 108.3% | ≤ 4455 ng/mL |  |  |  |  |  |  |
| NCc1ccc2cccc(O)c2n1 [PB 968] | 0.26 µM | 31.6% | 16.3 µM |  |  | 101% | 97% |  |  |  | 390% |  |  |  |  |  |
| Oc1c(Cl)cc(Cl)c2cccnc12 [PB 45] | 0.4 µM | 36.1% | 8.5 µM |  |  | 98% | 75% |  |  |  | 387% |  |  |  |  |  |
| CN(C)Cc1ccc2c(Cl)cc(I)c(O)c2n1 [PB 1177] | 0.29 µM | 79% | 2.4 µM |  | 1 day, 3/4 deaths |  |  | 97.9% | 24.4% |  |  |  |  |  |  |  |
| Cc1ccccc1-c1cc(I)c(O)c2ncccc12 [PB 861] | < 0.91 µM | 31.4% |  |  |  | 99% | 38% |  |  |  | 439% |  |  |  |  |  |
| Oc1c(Br)cc(Br)c2cccnc12 [PB 47] | 0.5 µM | 50% | 5 µM |  |  | 100% | 94% |  |  |  | 412% |  |  |  |  |  |
| CC(C)Cn1cnc2c(O)c(I)ccc2c1=O [PB 1152] | 0.31 µM | 56% | > 20 µM |  |  |  |  | 95.7% | 71.2% |  |  | At 10 mg/kg: Up to 309 ng/ml ng/mL | At 10 mg/kg 10 days, none |  |  |  |
| Oc1cccc2cccnc12 [PB 42] |  |  |  |  |  | 93% | 36% |  |  |  |  |  |  | 0.7 µM | BAS: 227% (1 μM- 100 μM) | Inactive |
| Br.CC(C)n1cnc2c(O)c(Cl)cc(Cl)c2c1=O [PB 1108] |  | 46.5% | > 20 µM | Up to 383 ng/ mL ng/mL | 10 days, none | 104% | 71% | 94.3% | 74.5% |  |  |  |  |  |  |  |
| Cc1ccc(-n2cnc3c(O)c(Cl)cc(Cl)c3c2=O)nc1 [PB 1089] |  | 16.4% | > 20 µM | Up to 39 ng/ mL ng/mL | 10 days, none | 96% | 83% |  |  |  |  |  |  |  |  |  |
| O=c1c2c(Cl)cc(Cl)c(O)c2ncn1CCc1ccccn1 [PB 1091] |  | 23.4% | > 20 µM | Up to 59 ng/ mL ng/mL | 10 days, none | 100% | 92% |  |  |  |  |  |  |  |  |  |
| COc1ccc(-n2cnc3c(O)c(Cl)cc(Cl)c3c2=O)cn1 [PB 1093] |  | 16% | > 20 µM | Up to 80 ng/ mL ng/mL | 10 days, none | 122% | 93% |  |  |  |  |  |  |  |  |  |
| CCn1nccc1-n1cnc2c(O)c(Cl)cc(Cl)c2c1=O [PB 1088] |  | 16.4% | > 20 µM | Up to 3896 ng/ mL ng/mL | 10 days, none | 102% | 94% |  |  |  |  |  |  |  |  |  |
| O=c1c(-c2ccc(Cl)cc2)cnc2c(O)c(I)ccn12 [PB 1063] |  | 40.5% | 19.7 µM | Up to 450 ng/ mL in mice ng/mL | 10 days, mild toxic signs | 41% | 33% |  |  |  |  |  |  |  |  |  |
| Oc1cccc2ccc(-c3ccccn3)nc12 [PB 1006] | 0.53 µM | 49.5% | 5.27 µM |  |  | 107% | 75% |  |  |  | 463% |  |  |  |  |  |
| CCCCc1cnc2c(O)cccn2c1=O [PB 1144] | 0.32 µM | 15.5% | 9.1 µM |  | 10 days, none |  |  | 73.6% | 37% |  |  |  |  |  |  |  |
| CCn1cnc2c(O)c(I)ccc2c1=O [PB 1123] | 0.29 µM | 25% | 0.91 µM |  | 10 days, none |  |  |  |  |  |  |  |  |  |  |  |
